Experimental findings from patent US12622917B2, “High-activity Wnt pathway inhibitor compound” (ADLAI NORTYE BIOPHARMA CO., LTD., priority 2020, dated 2026) are described below.

Each structure is given as a SMILES string. pIC50: −log10 of the molar value.

One experiment relates to RKO. Nature of the experiment: Proliferation inhibition, non-Wnt mutant control cell line RKO. The note with it: Homo sapiens, Wnt-independent control cell line, 96 hours, read-out: Antiproliferative IC50 RKO. In kind it is cell-based. A digest of the protocol:
(§1)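 1000 cells/well, 37° C/5% CO2, 20-24 h attach; 3-fold serial dilution, max final 20 uM; 96 h exposure. Promega viability readout, full wavelength mode. DMSO wells = positive ctrl, no-cell wells = negative ctrl; IC50 reported.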

The next experiment deals with DU4475. Kind of experiment: Proliferation inhibition, Wnt mutant cell line DU4475. The class given is cell-based. The note with it: Homo sapiens, DU-4475; DU4475, Wnt pathway-dependent, 96 hours; read-out: Antiproliferative IC50 DU4475. An excerpt: The cell lines used in the experiment are Colo205 and DU4475 cell lines whose Wnt pathway is continuously activated and whose proliferation is Wnt pathway-dependent; while the BELA and RKO cell lines, whose Wnt pathway is not activated under normal circumstances and the proliferation is independent of Wnt pathway, as control cell lines. It is Judged that the inhibitory effect of the compound of the present invention on Wnt-dependent proliferation is not caused by other non-specific toxicity.
Treat the Colo205, Du4475, HELA and RKO cell lines cultured in their respective mediums in the logarithmic growth phase, collect the cells and prepare a uniform cell suspension of known concentration, and then add it to the 96-well cell culture plate Cell suspension, so that each well contains 1000 cells. Put it into a 5% CO2 incubator and incubate at 37° C. for 20-24 h. On the second day, the fully dissolved, 3-fold serially diluted compound was added to each cell culture well, so that the final maximum concentration in the cell culture well was 20 uM, and the culture was continued for 96 hours. In this test, Promega's cell viability detection test is used for detection. The more the cells proliferate, the stronger the final signal intensity will be. The detection instrument is SpectraMax, full wavelength mode. The wells only added with DMSO were used as positive control wells, and the wells that were not inoculated with cells were used as negative control wells. […] The IC50 value of cell proliferation inhibition was used to evaluate the inhibitory effect of the compound on the Wnt pathway and the toxic effect on normal cells (Table 2).

In a further experiment the test system is Colo205. Nature of the experiment: Proliferation inhibition, Wnt mutant cell line Colo205. As to conditions: Homo sapiens, COLO 205; Colo205, Wnt pathway-dependent, 96 hours; read-out: Antiproliferative IC50 Colo205. The class given is cell-based. A digest of the protocol: as §1
A further experiment deals with NCI-H929. Kind of experiment: Proliferation inhibition, NCI-H929 cell line. The class given is cell-based, human. As to conditions: Homo sapiens; NCI-H929 cells, 96 hours culture, cell viability detection; read-out: Antiproliferative IC50 NCI-H929. An excerpt:
(§2) The cell lines used in the test are NCI-H929 and HepG2 cell lines whose Wnt pathway is continuously activated and whose proliferation is Wnt pathway-dependent; the inhibitory effect of the compound of the present invention on Wnt-dependent proliferation is judged.
(§3) Treat the NCI-H929 and HepG2 cell lines cultured in their respective mediums in the logarithmic growth phase, collect the cells and prepare a uniform cell suspension of known concentration, and then add the cell suspension to the 96-well cell culture plate solution so that each well contains 4000 cells. Put it into a […] incubator and incubate at 37° C. for 20-24 h. On the second day, the fully dissolved, 3-fold serially diluted compound was added to each cell culture well, so that the final maximum concentration in the cell culture well was 20 uM, and the culture was continued for 96 hours. In this test, Promega's cell viability detection test is used for detection. The more the cells proliferate, the stronger the final signal intensity will be. The detection instrument is SpectraMax, full wavelength mode. The wells only added with DMSO were used as positive control wells, and the wells that were not inoculated with cells were used as negative control wells. […] The IC50 value of cell proliferation inhibition was used to evaluate the inhibitory effect of the compound on the Wnt pathway and the toxic effect on normal cells (Table 3).

For experiment [1], the system named is Colo205-LUC-TCF/LEF M1 reporter cell line (Wnt pathway). Nature of the experiment: Colo205-LUC-TCF/LEF M1 reporter gene (luciferase) inhibition. In kind it is cell-based. The note with it: 4 hours incubation, luciferase readout. A digest of the protocol:
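Luminescent readout of TCF/LEF-regulated luciferase after a 4 h, 37° C compound exposure in a stable Colo205 reporter clone (10,000 cells/well). Serial 3-fold dilutions started at 20 uM; IC50 derived using DMSO-treated cells and no-cell wells as controls.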
(In a reporter assay the amount or activity of a reporter protein is the signal.)

The test system of another experiment is HepG2. Kind of experiment: Proliferation inhibition, HepG2 cell line. In kind it is cell-based. As to conditions: Homo sapiens; HepG2 cells, 96 hours culture, cell viability detection; read-out: Antiproliferative IC50 HepG2.
Text: as §2, §3

A word on the pIC50: it is −log10 of the IC50, conventionally taken in molar units. Regarding `CC[C@H]1C(=O)N2CCCc3nc(NCc4ccc(Oc5cnc(C(F)(F)F)nc5)nc4)nc(c32)N1C` [161 (W269)], the pIC50 in the experiment with RKO is less than 5.00; in the experiment on DU4475, more than 9.30; in the experiment with Colo205, 8.34; with NCI-H929 it was 7.66; in experiment [1] it was 8.05; in the experiment on HepG2, 7.80.
With `CN1c2nc(NCc3ccc(Oc4cnc(C(F)(F)F)nc4)nc3)nc3c2N(CCC3)C(=O)C1(C)C` [177 (W297)], the pIC50 in the experiment on RKO was less than 5.00; in the experiment with DU4475, 8.92; with Colo205, 7.79; with NCI-H929, 7.25; in experiment [1], 7.68; with HepG2, 7.60.
Consider `[2H]C([2H])([2H])N1c2nc(NCc3ccc(Oc4cnc(C(F)(F)F)nc4)nc3)nc3c2N(CCC3)C(=O)[C@@H]1CC(F)F` [164 (W326)], for which the pIC50 with RKO is less than 5.00; with DU4475, 8.30; with Colo205 it was 8.30; with NCI-H929, 7.59; in experiment [1] it was 7.59; in the experiment on HepG2, 8.12.
In the case of `C[C@H](F)[C@H]1C(=O)N2CCCc3nc(NCc4ccc(Oc5ccc(C(F)(F)F)nc5)nc4)nc(c32)N1C` [126 (W308), (R)-5-((S)-1-fluoroethyl)-4-methyl-2-(((6-((6-(trifluoromethyl)pyridin-3-yl)oxo)pyridine-3-yl)methyl)amino)-4,5,9,10-tetrahydro-6H,8H-pyrido[3,2,1-de]pteridin-6-one], the pIC50 is less than 5.00 in the experiment on RKO; more than 9.30 in the experiment with DU4475; 8.04 in the experiment with Colo205; 7.41 in the experiment with NCI-H929; 8.00 in experiment [1]; 8.57 in the experiment on HepG2.
Regarding `CN1c2nc(NCc3ccc(Oc4ccc(C(F)(F)F)nc4)nc3)nc3c2N(CCC3)C(=O)[C@@H]1c1ccccc1` [127 (W280), (S)-4-methyl-5-phenyl-2-(((6-((6-(trifluoromethyl)pyridin-3-yl)oxo)pyridin-3-yl)methyl)amino)-4,5,9,10-tetrahydro-6H,8H-pyrido[3,2,1-de]pteridin-6-one], the pIC50 in the experiment on RKO is less than 5.00; in the experiment with DU4475, 7.38; in the experiment on Colo205 it was 7.68; with NCI-H929, 7.12; in experiment [1], 7.70; in the experiment on HepG2 it was 7.38.
In the case of `CN1c2nc(NCc3ccc(Oc4ccc(C(F)(F)F)nc4)nc3)nc3c2N(CCC3)C(=O)[C@@H]1C1CC1` [120 (W265)], the pIC50 was less than 5.00 in the experiment with RKO; 9.30 with DU4475; 8.11 in the experiment with Colo205; 7.26 with NCI-H929; 7.82 in experiment [1]; 7.74 in the experiment on HepG2.
In the case of `CN1c2nc(NCc3ccc(Oc4cnc(C(F)(F)F)nc4)nc3)nc3c2N(CCC3)C(=O)[C@@H]1C1CC1` [167 (W289)], the pIC50 with RKO was less than 5.00; in the experiment with DU4475, 9.22; in the experiment with Colo205, 8.22; with NCI-H929 it was 7.55; in experiment [1], 7.92; in the experiment on HepG2 it was 8.17.
`[2H]C([2H])([2H])N1c2nc(NCc3ccc(Oc4ccc(C(F)(F)F)nc4)nc3)nc3c2N(CCC3)C(=O)[C@@H]1CC(F)F` [163 (W325)]: the pIC50 with RKO is less than 5.00; in the experiment with DU4475, 8.33; with Colo205, 8.30; with NCI-H929 it was 7.51; in experiment [1] it was 7.80; in the experiment with HepG2, 8.15.
With `CC[C@H]1C(=O)N2CCCc3nc(NCc4ccc(Oc5ccc(C(F)(F)F)nc5)nc4)nc(c32)N1C` [119 (W255), (S)-5-ethyl-4-methyl-2-(((6-((6-(trifluoromethyl)pyridin-3-yl)oxo)pyridin-3-yl)methyl)amino)-4,5,9,10-tetrahydro-6H,8H-pyrido[3,2,1-de]pteridin-6-one], the pIC50 with RKO was less than 5.00; in the experiment on DU4475, 8.64; in the experiment with Colo205 it was 8.12; with NCI-H929 it was 7.55; in experiment [1] it was 8.15; with HepG2, 8.27.
With `CCN1c2nc(NCc3ccc(Oc4ccc(C(F)(F)F)nc4)nc3)nc3c2N(CCC3)C(=O)[C@@H]1C` [116 (W249), (S)-4-ethyl-5-methyl-2-(((6-((6-(trifluoromethyl)pyridin-3-yl)oxo)pyridin-3-yl)methyl)amino)-4,5,9,10-tetrahydro-6H,8H-pyrido[3,2,1-de]pteridin-6-one], the pIC50 with RKO is less than 5.00; in the experiment on DU4475, 7.34; in the experiment with Colo205 it was 7.44; in the experiment with NCI-H929, 7.77; in experiment [1] it was 7.52; in the experiment with HepG2, 7.16.
Regarding `CN1c2nc(NCc3ccc(Oc4cnc(C(F)(F)F)nc4)nc3)nc3c2N(CCC3)C(=O)[C@@H]1C(C)(C)F` [151 (W332)], the pIC50 was less than 5.00 in the experiment on RKO; 7.89 with DU4475; 7.96 in the experiment on Colo205; 7.59 in the experiment on NCI-H929; 7.30 in experiment [1]; 8.01 with HepG2.
Turning to `C[C@H]1C(=O)N2CCCc3nc(NCc4ccc(Oc5cc(C(F)(F)F)nn5C5CC5)nc4)nc(c32)N1C` [130 (W354), (S)-2-(((6-((1-cyclopropyl-3-(trifluoromethyl)-1H-pyrazol-5-yl)oxo)pyridin-3-yl)methyl)amino)-4,5-dimethyl-4,5,9,10-tetrahydro-6H,8H-pyrido[3,2,1-de]pteridin-6-one], the pIC50 with RKO is less than 5.00; with Colo205, more than 9.30; with NCI-H929 it was 7.72; in experiment [1] it was more than 9.30; in the experiment with HepG2 it was more than 9.30.
For the compound `CCn1nc(C(F)(F)F)cc1Oc1ccc(CNc2nc3c4c(n2)N(C)[C@@H](COC)C(=O)N4CCC3)cn1` [202 (W361)], the pIC50 was less than 5.00 with RKO; 8.30 in the experiment with Colo205; 7.30 with NCI-H929; 8.40 in experiment [1]; 8.00 in the experiment with HepG2.
On the same counts, the results for `CN1c2nc(NCc3ccc(Oc4cc(C(F)(F)F)nn4C4CC4)nc3)nc3c2N(CCC3)C(=O)[C@@H]1CO` [205 (W379)] are less than 5.00, 7.83, 7.17, 7.43 and 8.25.
In the same order, the values of `[2H]C([2H])([2H])N1c2nc(NCc3ccc(Oc4cnc(C(F)(F)F)nc4)nc3)nc3c2N(CCC3)C(=O)C1CC(F)(F)F` (centres unmarked) [192 (W324)] are less than 5.00, 8.49, 7.92, 7.64 and 8.40.
Consider `CCn1nc(C(F)(F)F)cc1Oc1ccc(CNc2nc3c4c(n2)N(C)[C@@](C)(CO)C(=O)N4CCC3)cn1` [204 (W374)], for which the pIC50 was less than 5.00 in the experiment on RKO; 8.02 with Colo205; 7.22 in the experiment on NCI-H929; 7.60 in experiment [1]; 7.92 in the experiment on HepG2.
On the same counts, the results for `CN1c2nc(NCc3ccc(Oc4cc(C(F)(F)F)nn4C4CC4)nc3)nc3c2N(CCC3)C(=O)[C@]1(C)CO` [203 (W372)] are less than 5.00, 8.03, 7.02, 7.68 and 8.09.
In the same order, the values of `C[C@@H](O)[C@H]1C(=O)N2CCCc3nc(NCc4ccc(Oc5cc(C(F)(F)F)nn5C5CC5)nc4)nc(c32)N1C` [206 (W388)] are less than 5.00, 8.00, 7.05, 7.62 and 7.31.
